Key:
Format in all cases: cell-based
HIV-1IIIB = assay: Time of compound addition in HeLa-CD4-LTR-β-Gal cells; settings: time of compound addition relative to virus addition
Method: HeLa-CD4-LTR-β-Gal cells are seeded at a density of 1×10^4 cells/well in a volume of 100 μL 24 hours prior to assay initiation and incubated at 37° C./5% CO2. Following the incubation compound is serially diluted at the specified concentrations and were added to the cells in triplicate at timepoints of −30 minutes, 0, 1, 2, 4, 8 and 24 hours pre- or post-virus addition in a volume of 100 μL. HIV-1IIIB is added to the cells at a pre-determined titer. The cultures are incubated at 37° C./5% CO2 for 48 hours at which time efficacy is evaluated using a chemiluminescent substrate (Gal-Screen™, ThermoFisher Scientific, Waltham, Mass.) and toxicity (three timepoints of 0, 4 and 24 hours) evaluated using the tetrazolium dye XTT.

Ca Ski (Cervical) cells = assay: Toxicity to Ca Ski cells (XTT); settings: exposure 24 h
Method: (§1) TC50 values for the test materials are derived by measuring the reduction of the tetrazolium dye XTT (2,3-bis(2-methoxy-4-nitro-5-sulfophenyl)-5-[(phenylamino)carbonyl]-2H-tetrazolium hydroxide). XTT in metabolically active cells is metabolized by the mitochondrial enzyme Nicotinamide adenine dinucleotide phosphate oxidase (“NADPH”) to a soluble formazan product. XTT solution is prepared daily as a stock of 1 mg/ml in RPMI-1640 without additives. Phenazine methosulfate (PMS) solution is prepared at 0.15 mg/ml in DPBS and stored in the dark at −20° C. XTT/PMS stock is prepared immediately before use by adding 40 μL of PMS per ml of XTT solution. […] of XTT/PMS is added to each well of the plate and the plate incubated for 4 hours at 37° C. The 4 hour incubation has been empirically determined to be within the linear response range for XTT dye reduction with the indicated numbers of cells for each assay. The plates are sealed and inverted several times to mix the soluble formazan product and the plate is read at 450 nm (650 nm reference wavelength) with a Molecular Devices SpectraMax Plus 384 96 well plate format spectrophotometer.
(§2) Twenty-four hours prior to compound exposure, 100 μL of cells are plated at 5×10^4 cells per well in a flat-bottomed plate and. […] The plates are incubated at 5% CO2/37° C. for an additional 24 hours and then evaluated using XTT as described above.

ME180 (Cervical) cells = assay: Toxicity to ME180 cells (XTT); settings: exposure 24 h
Method: as §1, §2

[1] = tested on: Vaginal Ectocervical Tissues; assay: Toxicity to vaginal ectocervical tissue (MTT); settings: exposure 24 h
Method: On the day of the assay, the MatTek assay media is warmed and 900 μL added to each well of a 6-well plate. One hour prior to dosing, the epivaginal tissues are removed from the refrigerator and placed in the 6-well plate and the plate then incubated for 1 hour at 37° C./5% CO2. Following the incubation the media is removed from the 6 well plate and 900 μL of fresh media added. One-hundred microliters (100 μL) of each concentration is added in duplicate to the epivaginal tissue. The plate is then incubated for an additional 24 hours at 37° C./5% CO2. One hour prior to the end of the incubation, 1 mg/mL (3-(4,5-Dimethylthiazol-2-yl)-2,5-diphenyltetrazolium bromide (hereinafter, “MTT” available from Invitrogen of Carlsbad, Calif.) in DMEM is prepared. Fifteen minutes prior to the end of the incubation 300 μL of MTT is added to each well of a 24-well plate. Following the incubation, residual liquid is removed from the tissue and then gently rinsed two times with PBS. Each epivaginal tissue insert is then transferred to an individual well of the 24-well plate containing the MTT solution. The plate is then incubated for 3 hours at 37° C./5% CO2. […] The optical density of each sample is determined at 570 nm with a background of 650 nm. The % viability is determined to be 100×[OD(sample)/OD(negative control)]. […]

## O=C1Nc2ccc(Cl)cc2[C@@](C#CC2CC2)(C(F)(F)F)O1 [Efavirenz]
HIV-1IIIB
  Time in which Antiviral Activity is Lost: 4 to 8 h

## Nonoxynol-9 [Embodiment N-9]
Ca Ski (Cervical) cells
  toxic concentration: 36.31 µg/mL
ME180 (Cervical) cells
  toxic concentration: 41.83 µg/mL
[1]
  toxic concentration: 100 to 1000 µg/mL
